Reference: publication PMC12751000, “Dual Agonist/Antagonist Modulation of α9-Containing Nicotinic Acetylcholine Receptors by 2‑Ammoniumethyl Ethers of Stilbenol and Stilbenol Analogues” (Journal of Medicinal Chemistry, 2025)
“Also recorded” adds a separate entry of the source. Where two headings read alike, the source gives them in different places.

Key:
Assay type in all cases: cell-based
[1] = system: BzATP-induced release of IL-1β from human monocytic THP-1 cells; test: BzATP-induced IL-1β release by LPS-primed human monocytic THP-1 cells (ELISA); conditions: for Effect on the inhibitory effect of ACh on BzATP-induced IL-1β release: LPS 1 μg/mL 5 h, BzATP 100 μM 40 min; for Effect on BzATP-induced IL-1β release in the absence of ACh: LPS-primed THP-1
Protocol: THP-1 cells were primed with lipopolysaccharide (LPS; 1 μg/mL, 5 h) followed by stimulation with the P2X7 receptor agonist BzATP (2′/3′-O-(4-benzoylbenzoyl)-adenosine-5′-triphosphate, tri(triethylammonium) salt) for 40 min to induce IL-1β release, which was quantified by ELISA.
Experiments on human monocytic THP-1 cells (German Collection of Microorganisms and Cell Cultures, Braunschweig, Germany, Cat# ACC16) were performed as described before. […] The supernatants were collected and stored for later IL-1β measurements using the Human IL-1β/IL-1F2 DuoSet ELISA from R&D Systems (Minneapolis MN, USA, Cat# DY201). Cell viability was assessed by measuring lactate dehydrogenase (LDH) activity in the supernatants using the CytoTox 96 Non-Radioactive Cytotoxicity Assay (Promega, Madison WI, USA; Cat# G1780). LDH activities were expressed as a percentage of total LDH activity from lysed control cells. Data on the BzATP-induced IL-1β release and LDH activity were analyzed using SPSS (Version 29.0.2.0, IBM, Armonk, NY, United States) and visualized using Inkscape version 0.48.5 r10040 (Free and Open Source Software licensed under the GPL). The data were analyzed first by the Friedman test.

hα9α10 nAChRs [2] = biological target: T1, hα9α10 nAChRs (Homo sapiens, UniProt Q9GZZ6+Q9UGM1); test: Two-electrode voltage clamp, inhibition of ACh-evoked currents at hα9α10 nAChRs expressed in Xenopus laevis oocytes; conditions: for IC50 / n H (Hill coefficient of inhibition): 6 μM ACh; for IC50: 5 min preincubation with compound, holding potential −80 mV
T1 construct: host or cells: Xenopus laevis oocytes, cRNA-injected (α9:α10 cRNA ratio 1:1)
Excerpt: (§1) The protocols were approved by the Animal Ethics Committees of the Victor Chang Cardiac Research Institute, Sydney, and the University of Wollongong (project number AE 20/17). Human α9 and α10 nAChR clones were obtained from OriGene (Rockville, MD, USA) and subcloned into the pT7TS vector. The human α7 nAChR clone, in the plasmid pMXT, was kindly provided by J. Lindstrom (University of Pennsylvania, USA). Constructs of human nAChR subunits were linearized and used for in vitro cRNA transcription with the SP6/T7 mMessage mMachine transcription kit (AMBION, Forster City, CA, USA).
(§2) The cRNA concentration was verified spectrophotometrically and by gel electrophoresis.
(§3) Electrophysiological recordings were conducted 2–5 days after cRNA injection using a HiClamp automated two-electrode voltage-clamp screening system (MultiChannel Systems GmbH, Reutlingen, Germany) with a holding potential of –80 mV. To prevent the activation of endogenous Ca^2+-activated chloride channels due to the Ca^2+ permeability of α9-containing nAChRs, oocytes were preincubated with 100 μM BAPTA-AM for approximately 3 h.
For concentration–response experiments assessing modulation of ACh-evoked responses, oocytes were initially superfused with ND96 or ND115 solution, depending on the receptor subtype. […] After ACh application, a 3 min washout was performed. Oocytes were then incubated with the test compound for 5 min, followed by coapplication of the compound and ACh in a continuously flowing bath solution. All compounds were prepared in ND96 or ND115 with 0.1% bovine serum albumin (BSA).

hα9α10 nAChRs [3] = biological target: T1, hα9α10 nAChRs; test: Two-electrode voltage clamp, compound-evoked currents (compound applied alone) at hα9α10 nAChRs in Xenopus laevis oocytes
Excerpt: as §1, §2, §3
Concentration–response experiments assessing compound-evoked currents were performed by initially superfusing α9-containing nAChRs oocytes with ND115 solution. Test compounds were then applied at concentrations ranging from 300 pM to 30 μM, followed by a 3 min washout period.

hα9 nAChRs [4] = biological target: T2, hα9 nAChRs (Homo sapiens, UniProt Q9UGM1); test: Two-electrode voltage clamp, inhibition of ACh-evoked currents at hα9 nAChRs in Xenopus laevis oocytes; conditions: for n H (Hill coefficient of inhibition) / IC50: 50 μM ACh; for IC50: 5 min preincubation
T2 construct: host or cells: Xenopus laevis oocytes, cRNA-injected

hα9 nAChRs [5] = biological target: T2, hα9 nAChRs; test: Two-electrode voltage clamp, compound-evoked currents at hα9 nAChRs in Xenopus laevis oocytes; conditions: for n H (Hill coefficient of activation) / EC50: compound applied alone; for EC50: read-out: EC50
hα7 nAChRs [6] = biological target: T3, hα7 nAChRs (Homo sapiens, UniProt P36544); test: Two-electrode voltage clamp, inhibition of ACh-evoked currents at hα7 nAChRs in Xenopus laevis oocytes; conditions: for n H (Hill coefficient of inhibition) / IC50: 100 μM ACh; for IC50: 5 min preincubation
T3 construct: host or cells: Xenopus laevis oocytes, cRNA-injected (10 ng)

hα7 nAChRs [7] = biological target: T3, hα7 nAChRs; test: Two-electrode voltage clamp, compound-evoked currents at hα7 nAChRs in Xenopus laevis oocytes; conditions: compound applied alone
Protocol: Additionally, five compounds of the series were tested on the homomeric hα7 and hα9 nAChRs.
as §1, §2, §3

[8] = compound applied alone (300 pM to 30 μM), normalized to response at highest concentration, read-out: EC50

T1 sequence (Q9UGM1 26-479 limits assumed): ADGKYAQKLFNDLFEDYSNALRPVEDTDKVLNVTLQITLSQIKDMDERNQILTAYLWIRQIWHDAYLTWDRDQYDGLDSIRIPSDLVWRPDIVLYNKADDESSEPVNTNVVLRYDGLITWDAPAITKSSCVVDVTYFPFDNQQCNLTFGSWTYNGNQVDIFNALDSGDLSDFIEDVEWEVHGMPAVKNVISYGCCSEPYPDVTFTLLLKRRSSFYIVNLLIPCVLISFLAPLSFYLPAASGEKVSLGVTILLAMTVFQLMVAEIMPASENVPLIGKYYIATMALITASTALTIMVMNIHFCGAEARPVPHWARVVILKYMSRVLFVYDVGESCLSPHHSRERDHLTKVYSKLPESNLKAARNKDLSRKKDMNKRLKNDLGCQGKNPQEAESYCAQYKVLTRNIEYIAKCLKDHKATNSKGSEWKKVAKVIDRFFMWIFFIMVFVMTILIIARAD
T1 sequence (Q9GZZ6 25-450): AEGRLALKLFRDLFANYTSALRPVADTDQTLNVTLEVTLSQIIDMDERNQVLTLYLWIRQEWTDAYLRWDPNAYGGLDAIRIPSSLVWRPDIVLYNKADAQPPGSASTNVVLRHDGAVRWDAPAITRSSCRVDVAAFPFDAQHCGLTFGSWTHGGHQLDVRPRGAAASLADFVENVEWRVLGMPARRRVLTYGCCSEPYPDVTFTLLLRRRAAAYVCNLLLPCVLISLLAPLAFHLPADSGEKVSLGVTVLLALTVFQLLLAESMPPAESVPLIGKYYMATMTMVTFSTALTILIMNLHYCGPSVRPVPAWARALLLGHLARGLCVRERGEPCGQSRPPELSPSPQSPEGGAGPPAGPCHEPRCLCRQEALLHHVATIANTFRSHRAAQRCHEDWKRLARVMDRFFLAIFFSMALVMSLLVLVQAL
T2 sequence (Q9UGM1 26-479 limits assumed): as the sequence (Q9UGM1 26-479 limits assumed) above
T3 sequence (P36544 23-502): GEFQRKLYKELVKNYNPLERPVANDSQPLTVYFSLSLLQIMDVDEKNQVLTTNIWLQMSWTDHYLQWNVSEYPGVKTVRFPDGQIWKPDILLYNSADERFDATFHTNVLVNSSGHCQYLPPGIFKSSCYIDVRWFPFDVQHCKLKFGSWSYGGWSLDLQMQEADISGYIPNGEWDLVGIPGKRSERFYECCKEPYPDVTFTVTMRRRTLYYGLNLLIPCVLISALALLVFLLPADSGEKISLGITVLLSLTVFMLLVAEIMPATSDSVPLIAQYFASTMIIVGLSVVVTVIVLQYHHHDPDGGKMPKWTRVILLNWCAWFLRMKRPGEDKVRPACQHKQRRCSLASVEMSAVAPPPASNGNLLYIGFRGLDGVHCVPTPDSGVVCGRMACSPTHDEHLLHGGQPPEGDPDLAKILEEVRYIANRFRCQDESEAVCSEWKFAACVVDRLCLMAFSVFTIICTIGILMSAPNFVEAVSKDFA

| SMILES | IC50 (hα9α10 nAChRs [2]) [nM] | EC50 (hα9α10 nAChRs [3]; [8]) [nM] | IC50 ratio to Cpd 1 (hα9α10 nAChRs [2]) | n H (Hill coefficient of inhibition) (hα9α10 nAChRs [2]) | EC50 ratio to Cpd 1 (hα9α10 nAChRs [3]) | n H (Hill coefficient of activation) (hα9α10 nAChRs [3]; compound applied alone) | further results |
| --- | --- | --- | --- | --- | --- | --- | --- |
| CC(=O)OCC[N+](C)(C)C [ACh, acetylcholine] | – | – | – | – | – | – | Effect on BzATP-induced IL-1β release ([1]; ACh 10 μM applied shortly before BzATP): significantly reduced |
| CC[N+](CC)(CC)CCOc1ccc(CCc2ccccc2)cc1 [Compound 4] | 189 | 1140 | – | – | – | – | – |
| C[N+](C)(CCOc1ccc(/C=C/c2ccccc2)cc1)C1CCOCC1.[I-] [Compound 6, (E)-N,N-Dimethyl-N-(2-(4-styrylphenoxy)ethyl)tetrahydro-2H-pyran-4-aminium Iodide] | 55 | 185 | 0.9 | 2.1 | 0.5 | 2.4 | – |
| C[N+](C)(CCOc1ccc(/C=C/c2ccccc2)cc1)C1CCCC1.[I-] [Compound 7, (E)-N,N-Dimethyl-N-(2-(4-styrylphenoxy)ethyl)cyclopentanaminium Iodide] | 22.1 | 175 | 0.4 | 1.7 | 0.5 | 1.6 | – |
| C[N+](C)(CCOc1ccc(/C=C/c2ccccc2)cc1)C1CCCCCC1.[I-] [Compound 8, (E)-N,N-Dimethyl-N-(2-(4-styrylphenoxy)ethyl)cycloheptanaminium Iodide] | 124 | 300 | 2.1 | 2.6 | 0.8 | 1.6 | – |
| C[N+](C)(CCOc1ccc(/C=C/c2ccccc2)cc1)c1ccccc1.[I-] [Compound 9, (E)-N,N-Dimethyl-N-(2-(4-styrylphenoxy)ethyl)benzenaminium Iodide] | 95.1 | 474 | 1.6 | 2.1 | 1.2 | 3.3 | – |
| C[N+](C)(CCOc1ccc(/C=C/c2ccccc2)cc1)Cc1ccccc1.[Br-] [Compound 10, (E)-N-Benzyl-N,N-dimethyl-2-(4-styrylphenoxy)ethanaminium Bromide] | 124 | 448 | 2.1 | 2.1 | 1.2 | 2.4 | – |
| C[N+](CCOc1ccc(/C=C/c2ccccc2)cc1)(C1CCCC1)C1CCCC1.[I-] [Compound 12, (E)-N-Cyclopentyl-N-methyl-N-(2-(4-styrylphenoxy)ethyl)cyclopentanaminium Iodide] | 378 | 1710 | 6.3 | 3.0 | 4.4 | 1.2 | – |
| C[N+](CCOc1ccc(/C=C/c2ccccc2)cc1)(Cc1ccccc1)Cc1ccccc1 [Compound 13] | 1110 | 7040 | – | – | – | – | EC50 (hα9α10 nAChRs [3]; compound applied alone, read-out: EC50): > 5000 nM |
| C[N+](C)(CCCOc1ccc(/C=C/c2ccccc2)cc1)C1CCCCC1.[I-] [Compound 14, (E)-N,N-Dimethyl-N-(3-(4-styrylphenoxy)propyl)cyclohexanaminium Iodide] | 98.9 | 511 | 1.6 | 2.1 | 1.3 | 3.0 | – |
| C[N+](C)(CCCCOc1ccc(/C=C/c2ccccc2)cc1)C1CCCCC1.[I-] [Compound 15, (E)-N,N-Dimethyl-N-(4-(4-styrylphenoxy)butyl)cyclohexanaminium Iodide] | 124 | 1470 | 2.1 | 2.0 | 3.8 | 1.4 | – |
| C[N+](C)(CCOc1ccc(CCc2ccccc2)cc1)C1CCCCC1.[I-] [Compound 16, N,N-Dimethyl-N-(2-(4-phenethylphenoxy)ethyl)cyclohexanaminium Iodide] | 168 | 482 | 2.8 | 3.8 | 1.3 | 3.2 | IC50 ratio to Cpd 1 (hα9 nAChRs [4]): 0.7; n H (Hill coefficient of inhibition) (hα9 nAChRs [4]): 1.5; IC50 (hα9 nAChRs [4]): 133 nM; EC50 ratio to Cpd 1 (hα9 nAChRs [5]): 1.1; n H (Hill coefficient of activation) (hα9 nAChRs [5]): 2.4; EC50 (hα9 nAChRs [5]): 983 nM; IC50 ratio to Cpd 1 (hα7 nAChRs [6]): 1.0; n H (Hill coefficient of inhibition) (hα7 nAChRs [6]): 1.8; IC50 (hα7 nAChRs [6]): 434 nM; EC50 (hα7 nAChRs [7]): no agonist activity; Effect on the inhibitory effect of ACh on BzATP-induced IL-1β release ([1]; compound 100 pM + ACh 10 μM): efficiently antagonized the inhibitory effect of ACh; Effect on BzATP-induced IL-1β release in the absence of ACh ([1]; compound 100 pM): minor reduction; Effect on BzATP-induced IL-1β release in the absence of ACh ([1]; compound 100 nM): effectively and significantly inhibited |
| CC[N+](CC)(CC)CCOc1ccc(-c2ccccc2)cc1 [Compound 17] | 117 | 479 | 1.9 | 1.4 | 1.2 | 3.3 | – |
| CC[N+](CC)(CC)CCOc1ccc(C#Cc2ccccc2)cc1 [Compound 18] | 89 | 550 | 1.5 | 1.8 | 1.4 | 2.2 | – |
| CC[N+](CC)(CC)CCOc1ccc(OCc2ccccc2)cc1 [Compound 19] | 207 | 1020 | 3.4 | 1.6 | 2.6 | 1.9 | – |
| CC[N+](CC)(CC)CCOc1ccc(COc2ccccc2)cc1 [Compound 20] | 139 | – | 2.3 | 1.7 (1.6–1.8) [8] | – | – | EC50 (hα9α10 nAChRs [3]; compound applied alone (300 pM to 30 μM), normalized to response at highest concentration): failed to activate; also recorded: failed to evoke currents; also recorded: No activity |
| C[N+](C)(CCOc1ccc(OCc2ccccc2)cc1)C1CCCCC1.[I-] [Compound 21, N-(2-(4-(Benzyloxy)phenoxy)ethyl)-N,N-dimethylcyclohexanaminium Iodide] | 39.1 | 338 | 0.6 | 1.7 | 0.9 | 3.7 | IC50 ratio to Cpd 1 (hα9 nAChRs [4]): 0.9; n H (Hill coefficient of inhibition) (hα9 nAChRs [4]): 1.6; IC50 (hα9 nAChRs [4]): 171 nM; EC50 ratio to Cpd 1 (hα9 nAChRs [5]): 1.0; n H (Hill coefficient of activation) (hα9 nAChRs [5]): 2.2; EC50 (hα9 nAChRs [5]): 905 nM; IC50 ratio to Cpd 1 (hα7 nAChRs [6]): 1.0; n H (Hill coefficient of inhibition) (hα7 nAChRs [6]): 1.5; IC50 (hα7 nAChRs [6]): 419 nM; EC50 (hα7 nAChRs [7]): No activity; Effect on the inhibitory effect of ACh on BzATP-induced IL-1β release ([1]; compound 100 pM + ACh 10 μM): efficiently antagonized the inhibitory effect of ACh; Effect on BzATP-induced IL-1β release in the absence of ACh ([1]; compound 100 pM): minor reduction; Effect on the inhibitory effect of ACh on BzATP-induced IL-1β release ([1]; compound 100 nM + ACh 10 μM): mild antagonistic effects; Effect on BzATP-induced IL-1β release in the absence of ACh ([1]; compound 100 nM): effectively and significantly inhibited |
